Results published in patent US6887878B2, “KMST isoeugenol derivatives and pharmaceutical activity” (Ing-Jun Chen, priority 2003, dated 2005).
Like-named read-outs stand apart in the source and are kept apart here.

Legend:
5-HT1B = molecular target: T1, 5-HT1B (Rattus norvegicus, UniProt P28564); assay: [3H]GR125743 receptor binding in rat cortex; set-up: species or system Wistar rat; details: [3H]GR125743 (5-HT1B/1D), rat cortex; read-out: Ki 5-HT1B
T1 construct: from tissue; host or cells: Wistar rat cortex membranes
T1 sequence (P28564 whole entry): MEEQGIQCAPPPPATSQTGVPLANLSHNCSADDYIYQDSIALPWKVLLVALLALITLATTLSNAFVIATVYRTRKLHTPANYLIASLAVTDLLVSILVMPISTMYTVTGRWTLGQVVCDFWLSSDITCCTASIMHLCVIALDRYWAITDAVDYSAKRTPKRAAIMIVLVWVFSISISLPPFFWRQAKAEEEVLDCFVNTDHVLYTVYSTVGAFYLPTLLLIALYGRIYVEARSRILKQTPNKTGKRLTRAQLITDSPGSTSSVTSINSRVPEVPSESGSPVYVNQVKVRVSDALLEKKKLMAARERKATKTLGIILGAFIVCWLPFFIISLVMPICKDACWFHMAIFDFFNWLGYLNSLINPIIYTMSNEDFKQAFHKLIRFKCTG
Description: (§1) The homogenate was pressure filtered through muslin. Filtrate was centrifuged at 1000 g for 10 min. […] Protein content was determined by Bradford's method.

α1 receptors = assay: [3H]prazosin receptor binding in rat cortex; set-up: species or system Wistar rat
Description: as §1

α2 receptors = assay: [3H]yohimbine receptor binding in rat cortex; set-up: species or system Wistar rat
Description: as §1

[1] = system: lipid peroxidation in rat brain homogenate; assay: lipid peroxidation initiated by Fe2+-ascorbic acid in rat brain homogenates (TBARS); assay type: biochemical
Description: Rat brain homogenate was made in 0.9% saline containing 10 mg tissue/ml. The rates of membrane lipid peroxidation were measured by the formation of thiobarbituric acid (TBA)-reactive substance (TBARS). Rat brain homogenates (1 ml) were incubated at 37° C. for 5 min with 10 μl of test compound or vehicle. […] After 30 min of incubation, the reaction was stopped by adding 0.1 ml of 0.2% BHT. TBA reagent was then added and the mixture was heated for 30 min in a boiling water bath. […] The amount of TBARS was quantified using the linear regression obtained from malondialdehyde (MDA) standards.

[2] = system: epinephrine-induced human platelet aggregation; assay: epinephrine-induced human platelet aggregation; assay type: cell-based; details: epinephrine 5 μM, PRP
Description: Venous blood from human volunteer donors was collected in 10 ml Monovette containing 1 ml citrate solution (0.106M trisodium citrate; Sarstedt, Nümbrecht, Germany) and centrifuged (400 g, 10 min, 20° C.). […] After centrifugation (10 min, 2000 g, 20° C.), the platelet pellet was resuspended in wishing buffer (113 mM NaCl, 4 mM Na2HPO4, 24 mM NaH2PO4, 4 mM KCl, 0.2 mM EGTA(Ethylene glycol-bis-(2-aminoethyl ether) N,N,N′-tetraacetic acid), 0.1% (wt/vol) glucose, pH 6.0) and recentrifuged (10 min, 2000 g, 20° C.). The washed platelets were resuspended in incubation buffer (134 mM NaCl, 12 mM NaHCO3, 2.9 mM KCl, 0.34 mM NaH2PO4, 5 mM HEPES (N-(2-hydroxyethyl) piperazine-N′-(2-ethanesulfonic acid)), 5 mM glucose, pH7.4), cells were counted in a Sysmex hematology analyzer (Sysmex, CDA-500, Japan) and adjusted to a final concentration of 2×10^8 platelets/ml.
The aggregation of the platelets in platelet-rich plasma (PRP) was measured as a change in light absorbance by a Payton dual-channel aggregometer (NBS, Hema tracer, Japan). PRP (240 μL) was stirred (700 rpm) at 37° C. for 1 min, and 5 μL epinephrine (final concentration 5 μM), serotonin (final concentration 5 μM) was added. After which the rate of primary aggregation (1/min) and maximum aggregation (%) at 5 min were recorded. To study the effects of compounds on epinephrine or serotonin-induced aggregation, PRP was incubated with 5 μL of compounds at various concentrations for 1 min before epinephrine or serotonin was added. IC50 values given were calculated from the secondary aggregation data.

[3] = LPS-induced blood glucose changes; assay type: in vivo, rat
Description: In brief, Wistar rats weighing 250-300 g were anesthetized with pentobarbital sodium (50 mg kg^−1, i.p.). Following tracheal cannulation, systemic arterial BP and HR were recorded from the femoral artery by a pressure transducer (model P10EZ; Spectramed, Oxnard, Calif., U.S.A.) connected to a recorder (GOULD, Valley View, Ohio, Model P50). Body temperature was maintained at 37° C. by an electric heating pad. A femoral vein was cannulated for intravenous injection of drugs and LPS (10 mg kg^−1).
Blood was collected from venous cannula, injected into ice-cold heparinized Eppendorf tubes and centrifuged at 1500 rpm for 10 min at 4° C. Plasma supernatant was stored at −70° C. until analyzed. Solid phase enzyme immunoassay that specifically detects murine IL-1β, IL-6, IFN-γ and TNF-α was used with a detection limit of >10 pg/ml (Endogen, U.S.A). Pre-treatment with KMST and other agents was performed 15 minutes before intravenous injection of LPS. Blood was collected from venous cannula. Blood glucose was measured with a glucose test strip (Glucotide, Bayer, U.S.A) at 1, 3 and 5 hours.

5-HT1A = molecular target: T2, 5-HT1A (Rattus norvegicus, UniProt P19327); assay: [3H]WAY100635 receptor binding; details: read-out: Ki 5-HT1A; [3H]WAY100635
T2 sequence (P19327 1-422): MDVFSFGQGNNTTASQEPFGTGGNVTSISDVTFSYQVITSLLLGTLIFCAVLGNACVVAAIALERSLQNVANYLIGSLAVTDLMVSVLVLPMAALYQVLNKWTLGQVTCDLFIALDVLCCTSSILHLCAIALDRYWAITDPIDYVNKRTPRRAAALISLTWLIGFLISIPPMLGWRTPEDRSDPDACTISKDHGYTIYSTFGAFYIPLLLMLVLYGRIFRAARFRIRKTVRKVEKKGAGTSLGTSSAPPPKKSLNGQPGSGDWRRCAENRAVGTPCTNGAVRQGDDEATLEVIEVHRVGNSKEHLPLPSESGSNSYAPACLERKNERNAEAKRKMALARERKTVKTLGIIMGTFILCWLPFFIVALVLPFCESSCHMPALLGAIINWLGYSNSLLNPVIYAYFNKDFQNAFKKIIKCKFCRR

5-HT2A receptor = 5-HT2A receptor (Rattus norvegicus, UniProt P14842); assay: 5-HT-induced contraction in isolated rat thoracic aorta (pA2); set-up: Rat thoracic aorta was removed, cleaned of adhering fat and connective tissue; from tissue; host or cells: Wistar rat thoracic aorta rings; species or system Wistar rat; details: Schild plot, mean ± SEM of eight, listed as KMST
5-HT2A receptor, sequence (P14842 whole entry): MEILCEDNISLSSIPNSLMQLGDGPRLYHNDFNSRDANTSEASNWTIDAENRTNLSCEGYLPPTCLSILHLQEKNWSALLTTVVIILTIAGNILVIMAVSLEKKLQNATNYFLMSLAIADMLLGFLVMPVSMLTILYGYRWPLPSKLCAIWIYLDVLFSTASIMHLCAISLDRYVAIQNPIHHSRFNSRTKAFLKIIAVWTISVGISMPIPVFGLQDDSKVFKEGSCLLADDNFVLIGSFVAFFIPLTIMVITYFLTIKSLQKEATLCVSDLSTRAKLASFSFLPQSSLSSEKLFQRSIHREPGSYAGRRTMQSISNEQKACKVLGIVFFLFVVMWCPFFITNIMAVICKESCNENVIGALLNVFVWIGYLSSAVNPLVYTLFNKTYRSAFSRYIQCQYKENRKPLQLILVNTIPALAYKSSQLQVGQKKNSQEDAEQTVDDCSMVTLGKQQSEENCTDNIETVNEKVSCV
Description: Clonidine, noradrenaline and serotonin (10^−8˜10^−4 M) were added to the bath to induce contractions after pretreatment with KMST for 15 min.

Structure (SMILES): CC=Cc1ccc(OCC(O)CN2CCN(c3cccc(Cl)c3)CC2)c(OC)c1 (stereo not shown) [Compound 1]
- Ki (5-HT1B): 0.67 µM
- Ki (α1 receptors): 0.142 µM
- Ki (α2 receptors): 1.84 µM
- Ki (α2 receptors; listed as KMST): 1.39 µM
- potency of KMST relative to ascorbic acid, lipid peroxidation ([1]; rat brain homogenate): ~3 times
- potency of KMST relative to trazodone, lipid peroxidation ([1]; rat brain homogenate): ~30 times
- potency of KMST relative to yohimbine, lipid peroxidation ([1]; rat brain homogenate): approximately 5 times
- IC50 ([1]; rat brain homogenates, listed as KMST, read-out: IC50 inhibiting lipid peroxidation initiated by Fe2+-ascorbic acid): 2.68 µM
- IC50 [2]: 2.78 µM
- LPS-induced early hyperglycemia ([3]; at 1 and 3 hours): inhibited
- LPS-induced hypoglycemia ([3]; at 5 hours): did not affect
- Ki (5-HT1A): > 10 µM
- 5-HT2A pA2 value (5-HT2A receptor): 8.68±0.12
